Laboratory results taken from ChEMBL document CHEMBL1201862, “PubChem BioAssay data set” (2004).
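Step 1: Grow cells in 96-well plates. Step 2: Expose to compound for 48 hours at 5 concentrations. Step 3: Interpolate endpoints linearly; if unreached, use highest concentration. Abbreviation: GI50, concentration required for 50% inhibition of growth.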 Active and inactive are the calls of the source. Cut-off read from the data, not from the text of the source: active = GI50 up to about 1.1 µM and inactive = higher.

Legend:
Assay in all cases: NCI anticancer screen, dose series, 48 h
BT-549 = system: BT-549
UACC-257 = system: UACC-257
HCC 2998 = system: HCC 2998
ACHN = system: ACHN
HOP-62 = system: HOP-62
NCI/ADR-RES = system: NCI/ADR-RES
CCRF-CEM = system: CCRF-CEM
EKVX = system: EKVX
SK-OV-3 = system: SK-OV-3
RPMI-8226 = system: RPMI-8226
SNB-19 = system: SNB-19
M14 = system: M14
SF-268 = system: SF-268
OVCAR-8 = system: OVCAR-8
CAKI-1 = system: CAKI-1
MDA-MB-231 = system: MDA-MB-231
U-251 = system: U-251
NCI-H522 = system: NCI-H522
DU-145 = system: DU-145
SN12C = system: SN12C

Measured: GI50

CN(NC(=O)c1ccc(Cl)cc1)C1=NCCCCN1
inactive: BT-549 > 100 µM | UACC-257 > 100 µM | HCC 2998 > 100 µM | ACHN > 100 µM | HOP-62 > 100 µM | NCI/ADR-RES > 100 µM | CCRF-CEM > 100 µM | EKVX > 100 µM | SK-OV-3 > 100 µM | RPMI-8226 > 100 µM | SNB-19 > 100 µM | M14 > 100 µM | SF-268 > 100 µM | OVCAR-8 > 100 µM | CAKI-1 > 100 µM | MDA-MB-231 > 100 µM | U-251 > 100 µM | NCI-H522 > 100 µM

COC(=O)C1(C)OC(C)=NC1(C(=O)OC)C(=O)OC (configuration not stated)
inactive: BT-549 > 31.6 µM | UACC-257 > 100 µM | DU-145 > 100 µM | HCC 2998 > 100 µM | ACHN > 100 µM | HOP-62 > 100 µM | SN12C > 100 µM | NCI/ADR-RES > 100 µM | EKVX > 100 µM | SK-OV-3 > 100 µM | RPMI-8226 > 100 µM | SNB-19 > 100 µM | M14 > 100 µM | SF-268 > 100 µM | OVCAR-8 > 100 µM | CAKI-1 > 100 µM | MDA-MB-231 > 100 µM | U-251 > 100 µM

COCCOCCOCCOc1ccc(C(C#N)N(CCc2ccccc2)C(=O)c2cc(C(=O)N(CCc3ccccc3)C(C#N)c3ccc(OCCOCCOCCOC)cc3)cc(C(=O)N(CCc3ccccc3)C(C#N)c3ccc(OCCOCCOCCOC)cc3)c2)cc1 (configuration not stated)
inactive: BT-549 > 100 µM | UACC-257 > 100 µM | DU-145 > 100 µM | HCC 2998 > 100 µM | ACHN > 100 µM | HOP-62 > 100 µM | SN12C > 100 µM | NCI/ADR-RES > 100 µM | CCRF-CEM > 100 µM | EKVX > 100 µM | SK-OV-3 > 100 µM | SNB-19 > 100 µM | M14 > 100 µM | SF-268 > 100 µM | OVCAR-8 > 100 µM | MDA-MB-231 > 100 µM | U-251 > 100 µM | NCI-H522 > 100 µM

CC1C(c2ccc(N(C)C)cc2)c2cc3c(cc2OC1N1CCCC1)OCO3 (configuration not stated)
inactive: BT-549 38.2 µM | UACC-257 > 92.5 µM | DU-145 66.2 µM | HCC 2998 34.6 µM | ACHN > 72.9 µM | HOP-62 25.2 µM | SN12C 63.1 µM | NCI/ADR-RES 33.6 µM | CCRF-CEM 36 µM | EKVX 64.6 µM | RPMI-8226 36.1 µM | SNB-19 48.3 µM | M14 31.9 µM | SF-268 66.8 µM | OVCAR-8 70.3 µM | CAKI-1 38.5 µM | U-251 34 µM | NCI-H522 29.5 µM

COC(=O)/C=C/c1cnc2c(c1)oc(=O)n2CCc1ccccn1
inactive: BT-549 42.8 µM | UACC-257 > 100 µM | HCC 2998 > 100 µM | ACHN > 100 µM | HOP-62 > 100 µM | SN12C > 100 µM | NCI/ADR-RES 40.1 µM | CCRF-CEM 31.6 µM | EKVX > 100 µM | SK-OV-3 > 100 µM | RPMI-8226 > 100 µM | SNB-19 > 100 µM | M14 > 100 µM | SF-268 > 100 µM | MDA-MB-231 > 100 µM | U-251 > 100 µM

COc1ccc(CC2Cc3ccccc3CCN2)cc1OC (configuration not stated)
inactive: BT-549 > 50 µM | UACC-257 21.6 µM | DU-145 > 50 µM | HCC 2998 > 50 µM | HOP-62 40.5 µM | SN12C > 50 µM | NCI/ADR-RES > 50 µM | CCRF-CEM 28.5 µM | EKVX 26.2 µM | SK-OV-3 > 50 µM | RPMI-8226 18.3 µM | SNB-19 > 50 µM | M14 16.2 µM | SF-268 > 50 µM | OVCAR-8 > 50 µM | CAKI-1 > 50 µM | MDA-MB-231 44.5 µM | U-251 > 50 µM

Cc1ccc(/C=C2\Cc3cccc(C)c3C2=O)c(C(=O)O)c1
inactive: BT-549 62.7 µM | UACC-257 > 100 µM | DU-145 > 100 µM | HCC 2998 39.1 µM | ACHN 28.7 µM | HOP-62 > 100 µM | SN12C > 100 µM | CCRF-CEM 36.9 µM | EKVX > 100 µM | RPMI-8226 36.3 µM | SNB-19 > 100 µM | M14 > 100 µM | SF-268 > 100 µM | OVCAR-8 97.7 µM | CAKI-1 19.9 µM | MDA-MB-231 66.2 µM | U-251 57.9 µM | NCI-H522 22.3 µM

O=C(c1ccc(Cl)cc1)N(C(=S)OCc1ccccn1)c1ccccc1
inactive: BT-549 60.7 µM | UACC-257 82.6 µM | DU-145 58.6 µM | ACHN 70.6 µM | HOP-62 16.6 µM | SN12C 51.6 µM | NCI/ADR-RES 39 µM | CCRF-CEM 43.6 µM | EKVX 20.6 µM | SK-OV-3 > 100 µM | RPMI-8226 40.6 µM | SNB-19 > 100 µM | M14 65.3 µM | SF-268 > 100 µM | OVCAR-8 > 100 µM | CAKI-1 71.8 µM | MDA-MB-231 > 100 µM | U-251 53.6 µM

c1ccc2c(CSCc3cccc4ccccc34)cccc2c1
inactive: BT-549 > 100 µM | UACC-257 52.7 µM | DU-145 > 100 µM | HCC 2998 50.8 µM | ACHN > 100 µM | HOP-62 > 100 µM | SN12C > 100 µM | NCI/ADR-RES > 100 µM | CCRF-CEM 3.5 µM | EKVX 46.8 µM | SNB-19 > 100 µM | M14 > 100 µM | SF-268 > 100 µM | OVCAR-8 > 100 µM | CAKI-1 > 100 µM | MDA-MB-231 > 100 µM | U-251 85.1 µM | NCI-H522 99.3 µM

CC(=O)C1C(=O)C(=O)N(c2ccc(Cl)c(Cl)c2)C1=O (configuration not stated)
inactive: BT-549 > 100 µM | UACC-257 > 100 µM | DU-145 > 100 µM | HCC 2998 > 100 µM | ACHN > 100 µM | HOP-62 > 100 µM | SN12C > 100 µM | NCI/ADR-RES > 100 µM | EKVX > 100 µM | SK-OV-3 > 100 µM | SNB-19 > 100 µM | M14 > 100 µM | OVCAR-8 > 100 µM | CAKI-1 > 100 µM | MDA-MB-231 > 100 µM | U-251 > 100 µM

CCCCCC(=O)OCC1(CO)C/C(=C\CC(C(C)C)C(C)C)C(=O)O1 (configuration not stated)
inactive: BT-549 > 100 µM | UACC-257 > 100 µM | DU-145 > 100 µM | HCC 2998 > 100 µM | ACHN > 100 µM | HOP-62 39 µM | SN12C 31.6 µM | NCI/ADR-RES 87.5 µM | CCRF-CEM 26.4 µM | EKVX > 100 µM | SK-OV-3 > 100 µM | SNB-19 > 100 µM | M14 > 100 µM | SF-268 > 100 µM | OVCAR-8 38.1 µM | CAKI-1 83.6 µM | MDA-MB-231 > 100 µM | U-251 25.1 µM | NCI-H522 21.9 µM

O=C(/C=C/c1cccs1)c1ccc(C(=O)/C=C/c2cccs2)cc1
inactive: BT-549 > 100 µM | UACC-257 > 100 µM | DU-145 > 100 µM | HCC 2998 > 100 µM | ACHN > 100 µM | HOP-62 > 100 µM | SN12C > 100 µM | NCI/ADR-RES > 100 µM | EKVX > 100 µM | SK-OV-3 > 100 µM | SNB-19 > 100 µM | M14 > 100 µM | SF-268 > 100 µM | OVCAR-8 > 100 µM | CAKI-1 > 100 µM | MDA-MB-231 > 100 µM | U-251 > 100 µM | NCI-H522 > 100 µM

OC1=C(c2ccccc2)C2=NCCN2c2ccccc21
inactive: BT-549 95.7 µM | UACC-257 93.1 µM | DU-145 84.1 µM | HCC 2998 41.1 µM | ACHN 40.6 µM | HOP-62 31.8 µM | SN12C > 100 µM | NCI/ADR-RES 52.6 µM | CCRF-CEM 51.5 µM | EKVX 62.5 µM | RPMI-8226 36.4 µM | SNB-19 20 µM | M14 57.8 µM | SF-268 45.9 µM | OVCAR-8 51.1 µM | CAKI-1 > 100 µM | MDA-MB-231 > 100 µM | U-251 73.5 µM

CC1CCCN1CCCOC(=O)c1ccc(OC2C=CCCC2)cc1 (configuration not stated)
inactive: BT-549 40.6 µM | UACC-257 60.8 µM | DU-145 > 100 µM | HCC 2998 28.6 µM | ACHN 33.5 µM | HOP-62 20.1 µM | SN12C 39.4 µM | NCI/ADR-RES 48.3 µM | CCRF-CEM 30.3 µM | EKVX 51.4 µM | SK-OV-3 56.1 µM | RPMI-8226 31.8 µM | SNB-19 38.2 µM | M14 16.2 µM | SF-268 37.8 µM | OVCAR-8 47.6 µM | MDA-MB-231 18.1 µM | U-251 37.6 µM | NCI-H522 20.9 µM

CCN1CCCCCCCCCC(=N/O)/C(=N\O)C1
inactive: BT-549 > 100 µM | UACC-257 > 100 µM | DU-145 > 100 µM | ACHN > 100 µM | HOP-62 > 100 µM | SN12C > 100 µM | NCI/ADR-RES > 100 µM | CCRF-CEM > 100 µM | EKVX > 100 µM | SNB-19 > 100 µM | M14 > 100 µM | SF-268 > 100 µM | OVCAR-8 > 100 µM | CAKI-1 > 100 µM | MDA-MB-231 > 100 µM | U-251 > 100 µM | NCI-H522 > 100 µM
